The record followed here is patent publication EP0604248A1, “Use of 5-methoxypsoralen for the treatment of AIDS” (Goupil, Jean-Jacques, priority 1992, dated 1994).

For assay [1], the system named is VIH-1. Briefly: Residual infectivity of treated HIV-1 on primary cultures of activated human lymphocytes (reverse transcriptase activity in supernatants, 28 days). In kind it is cell-based. The conditions noted are these: for log reduction at 10 µg/mL: Human immunodeficiency virus 1, Lymphocyte, light or radiation study. The method, then:
(§1) Cette étude a été réalisée en 2 étapes : • traitements du virus VIH-1 (ou HIV-1) par le 5-méthoxypsoralène (5-MOP) et les UVA. • étude de l'infectivité résiduelle des échantillons traités à l'aide des tests sur cellules MT4 et sur lymphocytes activés.
(§2) Le virus a été traité par 10 µg/ml de 5-MOP, puis exposé aux UVA (1 à 2 Joules/cm²) de la façon suivante: • 4 ml de virus VIH-1 ont été traités avec 40 µl de 5-MOP à 1 mg/ml puis exposés aux UVA (intensité de 1,5 mW/cm²) pendant 17 minutes (échantillon PUV 10), • l'irradiation aux UVA a été faite avec la lampe PUVA 200 WALDMANN en déposant les flacons contenant le virus sur un lit de glace, afin d'éviter au maximum l'échauffement.
(§3) Les témoins pour cette expérience ont été les suivants : • le virus VIH-1 utilisé, non traité (échantillon PUV 1), • 4 ml du virus utilisé, traité uniquement par 40 µl de DMSO, afin de vérifier une éventuelle toxicité due au DMSO (échantillon PUV 2), • le virus utilisé, traité avec 10 µg/ml de 5-MOP, mais sans irradiation UVA (échantillon PUV 6), • le virus utilisé, traité uniquement par irradiation UVA pendant 17 minutes à 1,5 mW/cm² (échantillon PUV 5), • le virus utilisé, sans traitement, gardé à la température de l'expérience, pendant toute la durée du traitement, afin de vérifier la perte d'infectivité due aux conditions de la manipulation (échantillon PUV 9).
• a - Sur cellules MT4 : Des dilutions successives de chaque échantillon ont été testées en duplicata. 100 µl de chaque dilution ont été mis en contact 1 heure à 37°C avec 3.10⁵ cellules MT4 par puits de plaque COSTAR 24 puits. Les cellules ont été centrifugées afin d'éliminer le produit éventuellement toxique, puis resuspendues dans 1 ml du milieu de culture. Aux jours 3 et 6, 750 µl de surnageant ont été ôtés, remplacés par du milieu de culture frais et la concentration cellulaire ajustée à 3.10⁵ cellules par millilitre. Au jour 10, l'effet cytopathogène et la mortalité cellulaire ont été évalués par observation au microscope après coloration au bleu Trypan. Des dosages de l'activité transcriptase inverse ont été réalisés à partir des surnageants de culture conservés à chaque passage (jours 3, 6 et 10). • b - Sur lymphocytes humains activés : Un culot de 3.10⁶ lymphocytes préalablement stimulés à la PHA a été incubé avec 1 ml de chaque échantillon (de 10⁻¹ à 10⁻⁵ pour chaque échantillon, sauf pour l'échantillon PUV10 testé également non dilué) pendant 1 heure à 37°C. Puis les cellules ont été centrifugées et resuspendues à 10⁶ cellules par millilitre dans du milieu complet. Tous les 3 ou 4 jours, les cellules ont été comptées, réensemencées à 10⁶ cellules/ml et les surnageants conservés à -80°C. […]

For assay [2], the system named is VIH-1. Put plainly: Residual infectivity of treated HIV-1 on MT4 cells (cytopathic effect, p25 antigen, reverse transcriptase activity). In kind it is cell-based. The conditions noted are these: Human immunodeficiency virus 1, light or radiation study. The method, then:
as §1, §2
as §3, with “9). […]” for “9).”
For orientation: Protection from cytopathic effect is a common read-out in antiviral testing.

The structures appear in SMILES notation.

In the case of `COc1c2ccoc2cc2oc(=O)ccc12` [5-MOP, 5-méthoxypsoralène], the “réduction du pouvoir infectieux du virus” value in assay [1] (5-MOP seul, no UVA (control treatment), overall conclusion) is recorded as “sans effet”. The molecule further had a titre in assay [1] (5-MOP à 10 µg/ml et UVA (sample PUV10), activated human lymphocytes (PBL)) of 100 UI/ml. Moreover, the log reduction at 10 µg/mL in assay [1] (5-MOP à 10 µg/ml et UVA (sample PUV10, tested undiluted), activated human lymphocytes (PBL), read-out: inactivation virale) was 3; in assay [1] (5-MOP à 10 µg/ml et UVA, overall conclusion, read-out: réduction du pouvoir infectieux du virus), about 3; in assay [2] (5-MOP seul à 10 µg/ml, no UVA (sample PUV6), versus control PUV9, read-out: perte d'infectivité) it was 0.5; in assay [2] (5-MOP à 10 µg/ml et UVA (sample PUV10), versus control PUV9, read-out: réduction du titre infectieux), 2.5.
